Assays:
Assay type in all cases: in vitro ADME
CYP1A2 = target: T1, CYP1A2 (Homo sapiens, UniProt P05177); assay: Inhibition of human liver microsomal CYP450 enzymes, CYP1A2; details: human liver microsomes, substrate Phenacetin 30 μM; Reference = α-naphthoflavone; read-out: IC50 1A2
T1 construct: from tissue; host or cells: human liver microsomes (HLM)
T1 sequence (P05177 1-516): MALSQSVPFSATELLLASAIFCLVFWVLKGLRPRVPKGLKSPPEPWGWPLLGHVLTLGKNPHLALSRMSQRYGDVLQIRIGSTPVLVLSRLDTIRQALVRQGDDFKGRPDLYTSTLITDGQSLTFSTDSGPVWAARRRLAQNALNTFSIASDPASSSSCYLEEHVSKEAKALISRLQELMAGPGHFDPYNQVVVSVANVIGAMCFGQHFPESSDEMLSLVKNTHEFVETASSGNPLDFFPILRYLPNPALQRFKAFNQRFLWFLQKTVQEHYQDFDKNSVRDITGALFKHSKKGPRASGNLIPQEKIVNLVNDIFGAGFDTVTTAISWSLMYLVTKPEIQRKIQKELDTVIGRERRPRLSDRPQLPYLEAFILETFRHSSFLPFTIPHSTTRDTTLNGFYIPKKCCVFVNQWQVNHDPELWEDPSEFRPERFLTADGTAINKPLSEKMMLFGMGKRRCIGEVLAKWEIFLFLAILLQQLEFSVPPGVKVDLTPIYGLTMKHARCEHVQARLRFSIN
Procedure: (§1) The inhibitory effects of the compound of the present disclosure on the CYP450 enzymes of six human subtypes were determined by the following experimental method:
(§2) Reference compounds of each subtype: CYP1A2: α-naphthoflavone; CYP2C9: sulfaphenazole; CYP2C19: omeprazole; CYP3A4: ketoconazole; CYP2D6: quinidine.
(§3) Substrate concentration: CYP1A2: Phenacetin at 30 μM; CYP2C9: Diclofenac at 10 μM; CYP2C19: S-Mephenytoin at 35 μM; CYP3A4: Midazolam at 5 μM and Testosterone at 80 μM; CYP2D6: Bufuralol at 10 μM.
(§4) 6. 0.2 mg/mL of HLM was added to the test wells, 400 μL per well, and then the gradient diluted 400× test compound was added to the corresponding wells.
(§5) 7. 0.2 mg/mL of HLM was added to the test wells, 200 μL per well, and then the gradient-diluted reference inhibitor was added to the corresponding wells. Steps 6 and 7 needed to be performed on ice.
(§6) 8.1. 30 μL of test compound and reference compound were mixed in 0.2 mg/mL of HLM solution (see steps 6 and 7).
(§7) 8.2. 15 μL of 4× substrate solution (see step 4) was added.
(§8) 10. Preheated 8 mM of NADPH solution was added to the 96-well test plate (see step 3) to initiate the reaction, 15 μL per well.
(§9) 11. The test plate was incubated at 37° C.: 3A4 for 5 minutes, each of 1A2, 2C9 and 2D6 for 10 minutes, and 2C19 for 45 minutes.
(§10) 12. ACN containing internal reference was added to stop the reaction, 120 μL per well.
14. […]

CYP2C9 = target: T2, CYP2C9 (Homo sapiens, UniProt P11712); assay: Inhibition of human liver microsomal CYP450 enzymes, CYP2C9; details: human liver microsomes, substrate Diclofenac 10 μM; Reference = sulfaphenazole; read-out: IC50 2C9
T2 construct: from tissue; host or cells: human liver microsomes (HLM)
T2 sequence (P11712 whole entry): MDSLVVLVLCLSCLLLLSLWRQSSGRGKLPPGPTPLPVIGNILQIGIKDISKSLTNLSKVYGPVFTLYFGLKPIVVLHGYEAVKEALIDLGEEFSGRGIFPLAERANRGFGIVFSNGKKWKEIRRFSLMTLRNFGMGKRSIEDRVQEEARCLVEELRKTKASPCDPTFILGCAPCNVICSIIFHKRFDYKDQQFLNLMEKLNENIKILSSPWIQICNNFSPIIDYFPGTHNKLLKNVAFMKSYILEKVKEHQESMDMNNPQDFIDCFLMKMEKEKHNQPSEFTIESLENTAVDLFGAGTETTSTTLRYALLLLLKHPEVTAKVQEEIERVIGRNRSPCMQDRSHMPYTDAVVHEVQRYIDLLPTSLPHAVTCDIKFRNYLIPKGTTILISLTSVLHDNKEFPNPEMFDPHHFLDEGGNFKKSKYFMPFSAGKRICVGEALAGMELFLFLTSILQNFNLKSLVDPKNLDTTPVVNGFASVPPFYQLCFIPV
Procedure: as §1, §2, §3, §4, §5, §6, §7, §8, §9, §10
14. […]

[1] = Liver microsomal stability in vitro, dog; details: for half-life at 1 μM: pH 7.4, dog liver microsomes 0.5 mg protein/mL, 1 μM test compound, 37° C., read-out: Dog T1/2
Procedure: Evaluation of in vitro liver microsomal stability of the compound of the present disclosure was tested by the following method:
Buffer: 100 mM potassium phosphate buffer, pH 7.4; […] MgCl2.
Liver microsomes: human liver microsomes, Corning Cat No. 452117; Rat liver microsomes, Xenotech Cat No. R1000; Mouse liver microsomes, Xenotech Cat No. M1000; Dog liver microsomes, Xenotech Cat No. D1000; Liver microsomes of cynomolgus monkey, Corning Cat No. 452413, the final concentration was 0.5 mg protein/mL.
1. Intermediate solution: 5 μL of compound or control in stock solution (10 mM) was diluted with 495 μL of methanol (concentration: 100 μM, 99% MeOH).
2. Operating solution: the intermediate solution was diluted […] with 450 μL 100 mM potassium phosphate buffer (concentration: 10 μM, 9.9% MeOH).
1. 10 μL of compound or control solution per well was added to all plates (T0, T5, T10, T20, T30, T60, NCF60) except matrix blank.
2. Microsome solution was distributed to 96-well plates according to platemap for standby, 680 μL per well, and the mixture of microsome solution and the compound was incubated at 37° C. for about 10 minutes.
4. After preheating, NADPH regeneration system was distributed to 96-well plate, 90 μL per well, for standby according to plate map, which was added to each plate to start the reaction, 10 μL per well. The final concentration of each component in the incubation medium includes: 0.5 mg protein/mL microsome, 1 μM test compound, […], 0.99% methanol and 0.01% DMSO.
6. The above-prepared stop solution (4° C. cooling) was added to stop the reaction, 300 μL per well.
9. During centrifugation, eight new 96-well plates were loaded with 300 μL of HPLC water, and then 100 μL of supernatant was transferred for mixing, followed by LC/MS/MS detection.
10. Data analysis: The peak area of the corresponding compound and internal standard was detected by LC-MS/MS, and the T1/2 of the compound was calculated by the following formula: […]

**Q.** Which IC50 (CYP1A2) does the source give for `NC(=O)c1cccc2cn(-c3ccc([C@@H]4CCCNC4)cc3)nc12` [Niraparib, reference compound] here?
**A.** > 10 µM

**Q.** What about the IC50 (CYP2C9) of the same compound?
**A.** > 10 µM

**Q.** And the half-life at 1 μM [1]?
**A.** 22.6 min

**Q.** What does the source list for `NC(=O)c1cccc2cn(-c3ccc([C@]4(F)CCCNC4)cc3)nc12` (single isomer, unassigned) [Example 23, (R or S)-2-(4-(3-fluoropiperidin-3-yl)phenyl)-2H-indazole-7-carboxamide]?
**A.** IC50 (CYP1A2): > 10 µM; IC50 (CYP2C9): > 10 µM; metabolic stability in dog liver microsomes, in words ([1]; dog liver microsomes): excellent metabolic stability; half-life at 1 μM [1]: 20.3 min
